Experimental data: patent publication US12252457B2, “Compositions and methods for reducing tactile dysfunction, anxiety, and social impairment” (President and Fellows of Harvard College, priority 2018, dated 2025)

Test system: low-threshold mechanoreceptor neurons (LTMRs)
Assay: In vivo multiunit electrode recordings in the L4 DRG
Design: species or system mouse
Excerpt: FIGS. 20A-20O show isoguvacine attenuates tactile sensitivity through reduced excitability of peripheral, low-threshold mechanosensory neurons. FIG. 20A: Diagram for in vivo dorsal root ganglion (DRG) multi-unit electrode recordings, showing tetrode placement into the left L4 ganglia. FIG. 20B: Activity traces of two putative neurons (units) in response to a brush stimulus. FIG. 20C: Activity traces of two putative neurons (units) in response to a light air puff stimulus (1 PSI). FIGS. 20D-20G: Example unit identified during the spike sorting process. Average waveform at each electrode site (FIG. 20D, FIG. 20E), and inter-spike interval (FIG. 20F, FIG. 20G). FIG. 20H: Representative activity raster plots for multiple putative LTMRs in multiple mice over the duration of a recording experiment in controls and Advillin^Cre; Gabrb3^f/f mice. Mice received a subcutaneous injection of either saline or isoguvacine (2 mg/kg) during the experiment, and activity of light-touch responsive units in response to a light brush stimulus was assessed over a 90-minute period. FIG. 20I: Average firing frequency of LTMRs over the duration of each recording experiment, following subcutaneous injection of either saline or isoguvacine (2 mg/kg). Repeated measures, two-way ANOVA with post-hoc Dunnett's test, *p<0.05. FIG. 20J: Representative activity raster plots for putative LTMRs in multiple mice over the duration of recordings in controls and Shank3B^+/− mice. Mice received a subcutaneous injection of either saline or isoguvacine (2 mg/kg) during the experiment, and activity of light-touch responsive units was assessed over a 90-minute period. FIG. 20K: Average baseline spike rate of LTMRs in response to brush or air puff stimulus, in control and Shank3B^+/− mice. Student's t-test, *p<0.05. FIG. 20L: Average firing frequency of LTMRs over the duration of each recording experiment, following subcutaneous injection of either saline or isoguvacine (2 mg/kg). Repeated measures, two-way ANOVA with post-hoc Dunnett's test, *p<0.05. […] Two-way ANOVA with post-hoc Sidak's test, *, p<0.05. FIG. 20N: Response to a light air puff stimulus alone in mice following i.p. administration of either saline or 2 mg/kg isoguvacine treatment. Responses are expressed as percent of startle response to a 125 dB noise. Two-way ANOVA with post-hoc Sidak's test, *, p<0.05. FIG. 20O: Magnitude of startle response to a 125 dB noise in mice following i.p. administration of either saline or 2 mg/kg isoguvacine treatment. Responses are expressed as percent of startle response to a 125 dB noise. Two-way ANOVA with post-hoc Sidak's test, *, p<0.05.
To test the hypothesis that isoguvacine exerts its effects by acting directly on primary somatosensory neurons, electrophysiological recordings were performed both in vitro and in vivo. DRG cultures from Mecp2 and Shank3 mutant and control littermates were first produced to assess excitability of these neurons in vitro using whole cell patch-clamp recordings. […] It was next asked whether administration of isoguvacine would reduce mechanosensory neuron sensitivity in vivo by performing multiunit electrode recordings in the L4 DRG of urethane- and isoflurane-anesthetized mice (FIG. 20A). […] Once LTMR units were identified, animals were administered a subcutaneous injection of either saline vehicle or isoguvacine (2 mg/kg) and then sensitivity and firing frequency in response to tactile stimuli were monitored over a 90-minute period for each identified unit. […]

SMILES: O=C(O)C1=CCNCC1 [Isoguvacine, isoguvacine]
- proprioceptor sensitivity and firing (2 mg/kg subcutaneous): unaffected
- response thresholds to light touch stimuli and spiking of glabrous- and hairy-skin innervating Aβ LTMRs (2 mg/kg subcutaneous): increased response thresholds to light touch stimuli and reduced spiking
- tactile stimulus-evoked LTMR sensitivity (Advillin^Cre, Gabrb3^f/f mice, 2 mg/kg subcutaneous): no changes in tactile stimulus-evoked LTMR sensitivity
- LTMR firing (Shank3B and control littermates, 2 mg/kg subcutaneous): attenuated firing
- tactile stimulus-evoked (brush or air puff) responsivity of LTMRs (control mice, sixty minutes after 2 mg/kg subcutaneous): significantly decreased
